The values below come from PMC6801405, “Discovery of 3-Arylquinoxaline Derivatives as Potential Anti-Dengue Virus Agents” (International Journal of Molecular Sciences, 2019).

The subject of data set [1] is DENV2. Particulars: DENV2 in VERO-B cells; cited from earlier work.
In data set [2] the test system is DENV. Details: method as in PMID 27750144. Conditions: against DENV; cited from earlier work.
The test system of data set [3] is DENV-2. Details: method as in PMID 29031073. Particulars: cited from earlier work; for EC50: anti-DENV-2 activity.
The test system of data set [4] is DENV2. In words: microbe, parasite or virus in culture. In kind it is cell-based, dengue virus. Conditions: for anti-DENV activity in words: >32% inhibition of DENV-2 at 10 μM considered as active; for SI (selectivity index, CC50/EC50): CC50 Huh-7 / EC50 DENV; for inhibition at 1 µM / inhibition at 10 µM / EC50: Dengue virus; for inhibition at 1 µM / inhibition at 10 µM: DENV2, 72 h; for EC50: DENV2, DENV replication, read-out: EC50 (concentration resulting in a 50% inhibition in virus production).
Procedure: Anti-DENV activities were determined by firefly luciferase activity.
Huh-7-DV-Fluc cells were seeded in 24-well plates at a density of 2 × 10^4 cells per well, and treated with the 3-arylquinoxaline compounds at two concentrations (1 and 10 μM) or 0.1% DMSO as control. After three days of incubation, the luciferase activity assay was performed using the Bright-Glo Luciferase assay system (Promega, Madison, WI, USA) according to the manufacturer’s instructions.

Data set [5] concerns Huh-7 cells. In words: Cytotoxicity assay (XTT method). The format is cell-based, Human. Particulars: Huh-7 cells. How it is done:
(§1) For cytotoxicity tests, run in parallel with antiviral assays, plates at an initial density of 5 × 10^3 cells/well were treated with or without serial dilutions of test compounds. Cell viability was determined after 72 h at 37 °C in a humidified CO2 (5%) atmosphere by the (2,3-bis[2-methyloxy-4-nitro-5-sulfophenyl]-2H-tetrazolium-5-carboxanilide) (XTT) method.

Data set [6] in a line: Cytotoxicity assay (XTT method). In kind it is cell-based, Human. Particulars: human, mean ± SD; for viability at 72 h, 20 µM / viability at 72 h, 200 µM: Huh-7 cells, XTT; for viability at 72 h, 20 µM: read-out: Huh-7 Cell % viability at 20 μM; for viability at 72 h, 200 µM: read-out: Huh-7 Cell % viability at 200 μM; for CC50 at 72 h: uninfected Huh-7 cells, read-out: CC50 (concentration causing a 50% growth inhibition of uninfected Huh-7 cells). The protocol: as §1
In general terms: Tetrazolium assays rely on reduction of a dye to a coloured formazan, in cell work by metabolically active cells.

For data set [7], the system named is Huh-7 cells. Details: method as in PMID 29031073. Particulars: cited from earlier work.
The test system of data set [8] is DENV2. Details: method as in PMID 29031073. Conditions: cited from earlier work.
[9] abbreviates: 10 μM, Huh-7-DV-Fluc cells, three days, mean ± SD.
Where [10] appears, read: Huh-7-DV-Fluc cells, three days, mean ± SD.

Like-named read-outs stand apart in the source and are kept apart here. Some results are limits rather than exact numbers.

As for `O=C(NCc1ccc(-c2ccncc2)cc1)c1nccnc1C(=O)Nc1ccc(F)cc1` [Compound 1, N^2-(4-fluorophenyl)-N^3-[4-(pyridin-4-yl)benzyl]pyrazine-2,3-dicarboxamide], the EC50 in [1] was 0.93 µM.
In the case of `Cc1ccc(Cc2nc(Cc3ccc(C)cc3-c3cc(C)n[nH]3)c3ccccc3n2)cc1` [Compound 2, 4-[4-methyl-2-(3-methyl-1H-pyrazol-5-yl)benzyl)-2-(4-methylbenzyl)quinazoline], in [2], the EC50 was 2.6 µM.
As to `COc1ccc(-c2cc(-c3ccc4cc(F)ccc4n3)n(-c3ccc(S(N)(=O)=O)cc3)n2)cc1` [Compound 5, 4-[5-(6-fluoroquinolin-2-yl)-3-(4-methoxyphenyl)-1H-pyrazol-1-yl]benzenesulfonamide], in data set [3], the EC50 was 0.81 µM and the “fold more active anti-DENV-2 activity than ribavirin” value is reported as “approximately 10 fold”.
In turn, `COc1ccc(C(=O)c2nc3ccccc3nc2-c2ccccc2)cc1` [Compound 21b, (4-Methoxyphenyl)(3-phenylquinoxalin-2-yl)methanone] registered a melting point of 130 to 132.4 °C. Moreover, in data set [4] (10 μM), the “anti-DENV activity in words” value was “highly active”. For the same compound, in data set [4] (setting [9]), the “DENV2 % Inhibition at 10 μM” value was 51.85 ± 3.52% and the inhibition at 10 µM stood at 51%. Besides, in [4], the “SI (selectivity index, CC50/EC50)” value is greater than 61.54. Moreover, at 1 µM the inhibition in [4] (setting [10]) was 42.8 ± 5.13%. In [4] (mean ± SD), the EC50 was found to be 3.25 ± 0.89 µM. Besides, the cytotoxicity in words entry in [5] is recorded as “non-cytotoxic”. In [6], the viability at 72 h, 20 µM worked out at 106 ± 3.12%; the viability at 72 h, 200 µM came to 95.1 ± 4.32%; the CC50 at 72 h was greater than 200 µM.
Turning to `O=C(c1ccccc1)c1nc2ccccc2nc1-c1ccc(F)cc1` [Compound 23a, [3-(4-Fluorophenyl)quinoxalin-2-yl](phenyl)methanone], the melting point lay in the range of 94.1 to 96.6 °C. This compound yielded an inhibition at 1 µM in data set [4] (setting [10]) of 34.2 ± 5.12%. In data set [4] (setting [9]), this compound yielded an inhibition at 10 µM of 40.8 ± 2.58%. Also, in [6], the viability at 72 h, 20 µM worked out at 98.6 ± 5.68% and the viability at 72 h, 200 µM turned out to be 87.6 ± 5.75%.
In the same order, the values of `COc1ccc(C(=O)c2nc3ccccc3nc2-c2ccc(F)cc2)cc1` [Compound 23b, [3-(4-Fluorophenyl)quinoxalin-2-yl](4-methoxyphenyl)methanone] are 147.6 to 147.9 °C, 16.4 ± 3.11%, 33.6 ± 4.21%, 104 ± 1.85% and 103.3 ± 1.03%.
In the same order, the values of `O=C(c1ccccc1)c1nc2cc(Cl)c(Cl)cc2nc1-c1ccc(F)cc1` [Compound 24a, (6,7-Dichloro-3-(4-fluorophenyl)quinoxalin-2-yl)(phenyl)methanone] are 184.3 to 186.4 °C, 2.54 ± 1.21%, 23.5 ± 3.71%, 106 ± 2.12% and 91.9 ± 2.83%.
Consider `COc1ccc(-c2nc3ccccc3nc2C(=O)c2ccccc2)cc1` [Compound 25a, [3-(4-Methoxyphenyl)quinoxalin-2-yl](phenyl)methanone], for which the melting point was 93.9 to 98.2 °C. In [4] (setting [10]), this compound returned an inhibition at 1 µM of 40.4 ± 2.22%. For the same compound, the inhibition at 10 µM in [4] (setting [9]) is 47.5 ± 3.51%. Further, in data set [6], the viability at 72 h, 20 µM came to 101 ± 2.39% and the viability at 72 h, 200 µM is 100 ± 4.59%.
Take `COc1ccc(C(=O)c2nc3ccccc3nc2-c2ccc(OC)cc2)cc1` [Compound 25b, (4-Methoxyphenyl)[3-(4-methoxyphenyl)quinoxalin-2-yl]methanone]: the melting point was in the range of 144.5 to 146.2 °C. In [4] (setting [10]), testing at 1 µM gave an inhibition of 41.5 ± 3.25%. Also, in [4] (setting [9]), the inhibition at 10 µM came out at 49.7 ± 4.38%. In addition, in data set [6], the viability at 72 h, 20 µM was found to be 107 ± 3.03% and the viability at 72 h, 200 µM was determined as 99.4 ± 2.14%.
For `COc1ccc(-c2nc3cc(Cl)c(Cl)cc3nc2C(=O)c2ccccc2)cc1` [Compound 26a, [6,7-Dichloro-3-(4-methoxyphenyl)quinoxalin-2-yl](phenyl)methanone] the same measures were 173.9 to 174.3 °C, 1.95 ± 0.82%, 14.5 ± 2.55%, 99.4 ± 6.5% and 35.3 ± 4.95%.
The compound `COc1ccc(C(=O)c2nc3cc(Cl)c(Cl)cc3nc2-c2ccc(OC)cc2)cc1` [Compound 26b, [6,7-Dichloro-3-(4-methoxyphenyl)quinoxalin-2-yl](4-methoxyphenyl)methanone] returned a melting point of 178.8 to 179 °C. In addition, in data set [4] (10 μM), the “anti-DENV activity in words” value is “inactive”. In addition, in [4] (setting [10]), the inhibition at 1 µM turned out to be 1.17 ± 0.41%. Also, testing at 10 µM in data set [4] (setting [9]) gave an inhibition of 19.3 ± 3.85%. For the same compound, in [6], the viability at 72 h, 20 µM turned out to be 104 ± 4.22% and the viability at 72 h, 200 µM worked out at 99.1 ± 2.4%.
Compound `O=C(c1ccc(O)cc1)c1nc2ccccc2nc1-c1ccccc1` [Compound 27, (4-Hydroxyphenyl)(3-phenylquinoxalin-2-yl)methanone] showed a melting point of 196.5 to 199.3 °C. In addition, the inhibition at 1 µM in [4] (setting [10]) was found to be 44.9 ± 3.68%. The same compound gave an inhibition at 10 µM in data set [4] (setting [9]) of 48.7 ± 3.48%. In [6], the viability at 72 h, 20 µM was found to be 102 ± 2.84% and the viability at 72 h, 200 µM worked out at 18.4 ± 2.33%.
Regarding `NC(=O)c1ncn([C@@H]2O[C@H](CO)[C@@H](O)[C@H]2O)n1` [Ribavirin], the “Huh-7 Cell % viability at 20 μM” value in data set [7] (20 μM) was 71.37 ± 1.31%. In addition, the “Huh-7 Cell % viability at 200 μM” value in data set [7] (200 μM) is recorded as 14.36 ± 2.14%. Also, in data set [4], the “SI (selectivity index, CC50/EC50)” value is 4.47. The EC50 in data set [4] (mean ± SD) was 12.6 ± 1.17 µM; in data set [3], 12.6 µM. Besides, the CC50 at 72 h in [6] amounted to 56.3 ± 2.32 µM. Also, the “DENV2 % Inhibition at 1 μM” value in data set [8] (1 μM) is 10.14 ± 1.98%. Further, the “DENV2 % Inhibition at 10 μM” value in data set [8] (10 μM) was 32.53 ± 2.30%.

The term melting point denotes the temperature of the solid-liquid transition. As usually defined, the inhibition is the percentage by which the read-out fell short of the control. Low values mean little suppression, high ones strong suppression. One may read the viability as a read-out of living cells in per cent, often relative to untreated cells.
